The results in this text go back to patent US8530493B2, “Indolopyridines as Eg5 kinesin modulators” (4SC AG, priority 2006, dated 2013).

Molecules are shown by their SMILES. A value given as a limit tells only on which side of the number the result lay.

Data set [1] concerns RKO p27 uninduced (proliferating) colon adenocarcinoma cells. The data set can be described thus: Alamar Blue cell viability assay, RKO p27 uninduced (proliferating). Type of data set: cell-based. The following applies: Homo sapiens, RKOp27, Table B1, anti-proliferative/cytotoxic activity, 72 hours, read-out: −log EC50 RKO p27 uninduced (proliferating) (converted). How it is done: The anti-proliferative/cytotoxic activity of the compounds described herein can be tested on subclones of RKO human colon adenocarcinoma cells (Schmidt et al., Oncogene 19, 2423-2429; 2000) using the Alamar Blue cell viability assay (described in O'Brien et al. Eur J Biochem 267, 5421-5426, 2000). The compounds are dissolved as 10 mM solutions in DMSO and subsequently diluted in semi-logarithmic steps. DMSO dilutions are further diluted 1:100 into Dulbecco's modified Eagle's medium (DMEM) containing 10% fetal calf serum to a final concentration twice as much as the final concentration in the test. RKO subclones are seeded into 96 well flat bottom plates at a density of 4000 cells per well in a volume of 50 μl per well. 24 hours after seeding the 50 μl each of the compound dilutions in DMEM medium are added into each well of the 96 well plate. Each compound dilution is tested as triplicates. Wells containing untreated control cells are filled with 50 μl DMEM medium containing 1% DMSO. The cells are then incubated with the substances for 72 hours at 37° C. in a humidified atmosphere containing 5% carbon dioxide. To determine the viability of the cells, 10 μl of an Alamar Blue solution (Biosource) are added and the fluorescence is measured at an extinction of 544 nm and an emission of 590 nm. For the calculation of the cell viability the emission value from untreated cells is set as 100% viability and the emission rates of treated cells are set in relation to the values of untreated cells. Viabilities are expressed as % values. The Graphpad Prism program is used for the calculation of EC50 values for anti-proliferative/cytotoxic activity out of the obtained dose-response curves.
(§1) To determine the cell cycle specific mode of action, subclones of RKO colon adenocarcinoma cells (RKOp21 or RKOp27 as described by Schmidt et al. in Oncogene 19, 2423-2429; 2000) are seeded into 96 well flat bottom plates at a density of 16000 cells per well in a volume of 50 μl per well in DMEM growth medium with 10% FCS containing 10 μM Ponasterone A. 24 hours after seeding the 50 μl each of the compound dilutions in DMEM medium are added into each well of the 96-well plate. Each compound dilution is tested as triplicates. Wells containing untreated control cells are filled with 50 μl DMEM medium containing 1% DMSO. The cells are then incubated with the substances for 72 hours at 37° C. in a humidified atmosphere containing 5% carbon dioxide. To determine the viability of the cells, 10 μl of an Alamar Blue solution (Biosource) are added and the fluorescence is measured at an extinction of 544 nm and an emission of 590 nm. For the calculation of the cell viability the emission value from untreated cells is set as 100% viability and the emission rates of treated cells are set in relation to the values of untreated cells. Viabilities are expressed as % values. The Graphpad Prism program (GraphPad Software, Inc) is used for the calculation of EC50 values out of the obtained dose-response curves. Viability is compared of proliferating cells grown in the absence of the inducer Ponasterone A, versus viability of cells arrested by the expression of ectopic p27Kip1 induced by Ponasterone A.
(§2) Representative values for anti-proliferation/cytotoxicity [measured as −log EC50 (mol/l)] determined in the aforementioned assays follow from the following tables B1, B2 and B3, in which the numbers of the compounds correspond to the numbers of the examples.
(Alamar Blue is a resazurin reagent that responds to reducing activity.)

In data set [2] the test system is RKO p27 induced (arrested) colon adenocarcinoma cells. Description: Alamar Blue cell viability assay, RKO p27 induced by Ponasterone A (arrested). Type of data set: cell-based. The note with it: Homo sapiens, RKOp27, Table B1, cells arrested by Ponasterone A-induced p27Kip1, 72 hours, read-out: −log EC50 RKO p27 induced (arrested) (converted). As to the method:
as §1, §2

Turning to `COc1ccc2[nH]c3c(c2c1)C[C@@]1(C)C(=O)N(CCN2CCCC2)C(=O)N1[C@@H]3c1cccc(O)c1` (racemic) [Example 11, (3aSR,10RS)-10-(3-Hydroxy-phenyl)-6-methoxy-3a-methyl-2-(2-pyrrolidin-1-yl-ethyl)-3a,4,9,10-tetrahydro-2,9,10a-triaza-cyclopenta[b]fluorene-1,3-dione], the melting point (commonly the temperature, or range, at which the solid turns liquid) is 252 to 255 °C. Besides, the EC50 (as a rule, the midpoint of the concentration-response curve) in data set [1] was not above 39.8 nM. In data set [2], the EC50 was not below 3160 nM.

`C[C@@]12Cc3c([nH]c4ccc(Cl)cc34)[C@@H](c3cccc(O)c3)N1C(=O)N(CCBr)C2=O` (racemic): the melting point is 262 to 264 °C.

In turn, `COc1ccc2[nH]c3c(c2c1)C[C@@]1(C)C(=O)N(CCN2CCOCC2)C(=O)N1[C@@H]3c1cccc(O)c1` (racemic) [Example 10, (3aSR,10RS)-10-(3-Hydroxy-phenyl)-6-methoxy-3a-methyl-2-(2-morpholin-4-yl-ethyl)-3a,4,9,10-tetrahydro-2,9,10a-triaza-cyclopenta[b]fluorene-1,3-dione] gave a melting point of 260 to 263 °C. Further, in data set [1], the EC50 was not above 39.8 nM. Besides, the EC50 in data set [2] was not below 3160 nM.

Take `COc1ccc2[nH]c3c(c2c1)C[C@@]1(C)C(=O)N(CCN2CCN(C)CC2)C(=O)N1[C@@H]3c1cccc(O)c1` (racemic) [Example 12, (3aSR,10RS)-10-(3-Hydroxy-phenyl)-6-methoxy-3a-methyl-2-[2-(4-methyl-piperazin-1-yl)ethyl]-3a,4,9,10-tetrahydro-2,9,10a-triaza-cyclopenta[b]fluorene-1,3-dione]: the melting point fell in the range of 224 to 227 °C. The EC50 in data set [1] was 39.8 to 251 nM. In addition, in data set [2], the EC50 was not below 3160 nM.

With `COc1ccc2[nH]c3c(c2c1)C[C@@]1(C)C(=O)N(CCn2ccnc2)C(=O)N1[C@@H]3c1cccc(O)c1` (racemic) [Example 13, (3aSR,10RS)-10-(3-Hydroxy-phenyl)-2-(2-imidazol-1-yl-ethyl)-6-methoxy-3a-methyl-3a,4,9,10-tetrahydro-2,9,10a-triaza-cyclopenta[b]fluorene-1,3-dione], the melting point was 321 to 324 °C. Besides, in data set [1], the concentration giving a half-maximal response (EC50) was 39.8 to 251 nM. In addition, the EC50 in data set [2] is not below 3160 nM.

`COc1ccc2[nH]c3c(c2c1)C[C@@]1(C)C(=O)N(CCCN(C)C)C(=O)N1[C@@H]3c1cccc(O)c1` (racemic) [Example 15, (3aSR,10RS)-2-(3-Dimethylamino-propyl)-10-(3-hydroxy-phenyl)-6-methoxy-3a-methyl-3a,4,9,10-tetrahydro-2,9,10a-triaza-cyclopenta[b]fluorene-1,3-dione] gave a melting point of 228 to 231 °C. Also, the EC50 in data set [1] is not above 39.8 nM. In data set [2], the EC50 is not below 3160 nM.

`CN(C)CCN1C(=O)N2[C@H](c3cccc(O)c3)c3[nH]c4ccc(Br)cc4c3C[C@@]2(C)C1=O` (racemic) [Example 8, (3aSR,10RS)-6-Bromo-2-(2-dimethylamino-ethyl)-10-(3-hydroxy-phenyl)-3a-methyl-3a,4,9,10-tetrahydro-2,9,10a-triaza-cyclopenta[b]fluorene-1,3-dione] had a melting point of 286 to 288 °C. For the same compound, the EC50 in data set [1] is not above 39.8 nM. For the same compound, in data set [2], the EC50 is not below 3160 nM.

`COc1ccc2[nH]c3c(c2c1)C[C@@]1(C)C(=O)N(CCBr)C(=O)N1[C@@H]3c1cccc(O)c1` (racemic) [Example 24, (3aSR,10RS)-2-(2-Bromo-ethyl)-10-(3-hydroxy-phenyl)-6-methoxy-3a-methyl-3a,4,9,10-tetrahydro-2,9,10a-triaza-cyclopenta[b]fluorene-1,3-dione] returned a melting point of 299 to 302 °C. The EC50 in data set [1] was 39.8 to 251 nM. For the same compound, the EC50 in data set [2] was not below 3160 nM.

In turn, `CN(C)CCN1C(=O)N2[C@H](c3cccc(O)c3)c3[nH]c4ccc(Cl)cc4c3C[C@@]2(C)C1=O` (racemic) [Example 9, (3aSR,10RS)-6-Chloro-2-(2-dimethylamino-ethyl)-10-(3-hydroxy-phenyl)-3a-methyl-3a,4,9,10-tetrahydro-2,9,10a-triaza-cyclopenta[b]fluorene-1,3-dione] yielded a melting point of 283 to 286 °C. Moreover, in data set [1], the EC50 is not above 39.8 nM. Moreover, in data set [2], the EC50 is not below 3160 nM.

For `CCOc1ccc2[nH]c3c(c2c1)C[C@@]1(C)C(=O)N(CCN2CCC2)C(=O)N1[C@@H]3c1cccc(O)c1` (racemic) [Example 46, (3aSR,10RS)-2-(2-Azetidin-1-yl-ethyl)-6-ethoxy-10-(3-hydroxy-phenyl)-3a-methyl-3a,4,9,10-tetrahydro-2,9,10a-triaza-cyclopenta[b]fluorene-1,3-dione], the values for the EC50 in data set [1] and in data set [2] were not above 39.8 nM and not below 3160 nM, respectively.

Consider `COc1ccc2[nH]c3c(c2c1)C[C@@]1(C)C(=O)N(CCN2CCC2)C(=O)N1[C@@H]3c1cccc(O)c1` (racemic) [Example 33, (3aSR,10RS)-2-(2-Azetidin-1-yl-ethyl)-10-(3-hydroxy-phenyl)-6-methoxy-3a-methyl-3a,4,9,10-tetrahydro-2,9,10a-triaza-cyclopenta[b]fluorene-1,3-dione], for which the figures for the concentration giving a half-maximal response (EC50) in data set [1] and in data set [2] were not above 39.8 nM and not below 3160 nM, respectively.

Regarding `COc1ccc2[nH]c3c(c2c1)C[C@@]1(C)C(=O)N(CCN(C)C)C(=O)N1[C@@H]3c1cccc(O)c1` (racemic) [Example 7, (3aSR,10RS)-2-(2-Dimethylamino-ethyl)-10-(3-hydroxy-phenyl)-6-methoxy-3a-methyl-3a,4,9,10-tetrahydro-2,9,10a-triaza-cyclopenta[b]fluorene-1,3-dione], the EC50 was not above 39.8 nM in data set [1] and not below 3160 nM in data set [2].

With `CCOc1ccc2[nH]c3c(c2c1)C[C@@]1(C)C(=O)N(CCN)C(=O)N1[C@@H]3c1cccc(O)c1` (racemic) [Example 45, (3aSR,10RS)-2-(2-Amino-ethyl)-6-ethoxy-10-(3-hydroxy-phenyl)-3a-methyl-3a,4,9,10-tetrahydro-2,9,10a-triaza-cyclopenta[b]fluorene-1,3-dione], the EC50 in data set [1] is not above 39.8 nM; in data set [2], not below 316 nM.

As for `CC[C@@]12Cc3c([nH]c4ccc(OC)cc34)[C@@H](c3cccc(O)c3)N1C(=O)N(CCN(C)C)C2=O` (racemic) [Example 18, (3aSR,10RS)-2-(2-Dimethylamino-ethyl)-3a-ethyl-10-(3-hydroxy-phenyl)-6-methoxy-3a,4,9,10-tetrahydro-2,9,10a-triaza-cyclopenta[b]fluorene-1,3-dione], the EC50 in data set [1] is not above 39.8 nM; in data set [2], not below 3160 nM.

For `COc1ccc2[nH]c3c(c2c1)C[C@@]1(C)C(=O)N(CCNC2CCC2)C(=O)N1[C@@H]3c1cccc(O)c1` (racemic) [Example 50, (3aSR,10RS)-2-(2-Cyclobutylamino-ethyl)-10-(3-hydroxy-phenyl)-6-methoxy-3a-methyl-3a,4,9,10-tetrahydro-2,9,10a-triaza-cyclopenta[b]fluorene-1,3-dione], the EC50 in data set [1] was not above 39.8 nM; in data set [2], not below 3160 nM.

For the compound `CN1C(=O)N2[C@H](c3cccc(O)c3)c3[nH]c4ccc(Cl)cc4c3C[C@@]2(C)C1=O` (racemic) [Example 5, (3aSR,10RS)-6-Chloro-10-(3-hydroxy-phenyl)-2,3a-dimethyl-3a,4,9,10-tetrahydro-2,9,10a-triaza-cyclopenta[b]fluorene-1,3-dione], the EC50 in data set [1] is 39.8 to 251 nM; in data set [2] it was not below 3160 nM.
